Here are results for four compounds from PMC7026418, “The kinase polypharmacology landscape of clinical PARP inhibitors” (Scientific Reports, 2020).

What all share (experiment): biochemical
Set-up in all cases: DiscoveRx KINOMEscan active site-directed competition binding; percent of control kinase bound to immobilised ligand

One test addresses T1, SGK3 (Homo sapiens, UniProt Q96BR1).
T1 sequence (Q96BR1 1-496): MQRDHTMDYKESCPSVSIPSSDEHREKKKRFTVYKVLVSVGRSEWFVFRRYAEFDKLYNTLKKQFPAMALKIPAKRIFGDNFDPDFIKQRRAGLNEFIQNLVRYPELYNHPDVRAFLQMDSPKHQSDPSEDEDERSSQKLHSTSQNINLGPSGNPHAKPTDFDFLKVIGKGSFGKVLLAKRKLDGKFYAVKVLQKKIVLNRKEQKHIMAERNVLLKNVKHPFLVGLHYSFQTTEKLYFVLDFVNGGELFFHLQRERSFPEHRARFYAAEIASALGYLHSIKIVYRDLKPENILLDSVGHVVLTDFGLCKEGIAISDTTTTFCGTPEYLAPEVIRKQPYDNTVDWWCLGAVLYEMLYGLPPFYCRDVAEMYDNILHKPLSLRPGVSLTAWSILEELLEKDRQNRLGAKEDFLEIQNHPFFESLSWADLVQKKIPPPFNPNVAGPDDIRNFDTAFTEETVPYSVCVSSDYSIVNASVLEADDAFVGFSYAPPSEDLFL

The target in another test is ROCK1 (Homo sapiens, UniProt Q13464).
Chain of ROCK1 (Q13464 whole entry): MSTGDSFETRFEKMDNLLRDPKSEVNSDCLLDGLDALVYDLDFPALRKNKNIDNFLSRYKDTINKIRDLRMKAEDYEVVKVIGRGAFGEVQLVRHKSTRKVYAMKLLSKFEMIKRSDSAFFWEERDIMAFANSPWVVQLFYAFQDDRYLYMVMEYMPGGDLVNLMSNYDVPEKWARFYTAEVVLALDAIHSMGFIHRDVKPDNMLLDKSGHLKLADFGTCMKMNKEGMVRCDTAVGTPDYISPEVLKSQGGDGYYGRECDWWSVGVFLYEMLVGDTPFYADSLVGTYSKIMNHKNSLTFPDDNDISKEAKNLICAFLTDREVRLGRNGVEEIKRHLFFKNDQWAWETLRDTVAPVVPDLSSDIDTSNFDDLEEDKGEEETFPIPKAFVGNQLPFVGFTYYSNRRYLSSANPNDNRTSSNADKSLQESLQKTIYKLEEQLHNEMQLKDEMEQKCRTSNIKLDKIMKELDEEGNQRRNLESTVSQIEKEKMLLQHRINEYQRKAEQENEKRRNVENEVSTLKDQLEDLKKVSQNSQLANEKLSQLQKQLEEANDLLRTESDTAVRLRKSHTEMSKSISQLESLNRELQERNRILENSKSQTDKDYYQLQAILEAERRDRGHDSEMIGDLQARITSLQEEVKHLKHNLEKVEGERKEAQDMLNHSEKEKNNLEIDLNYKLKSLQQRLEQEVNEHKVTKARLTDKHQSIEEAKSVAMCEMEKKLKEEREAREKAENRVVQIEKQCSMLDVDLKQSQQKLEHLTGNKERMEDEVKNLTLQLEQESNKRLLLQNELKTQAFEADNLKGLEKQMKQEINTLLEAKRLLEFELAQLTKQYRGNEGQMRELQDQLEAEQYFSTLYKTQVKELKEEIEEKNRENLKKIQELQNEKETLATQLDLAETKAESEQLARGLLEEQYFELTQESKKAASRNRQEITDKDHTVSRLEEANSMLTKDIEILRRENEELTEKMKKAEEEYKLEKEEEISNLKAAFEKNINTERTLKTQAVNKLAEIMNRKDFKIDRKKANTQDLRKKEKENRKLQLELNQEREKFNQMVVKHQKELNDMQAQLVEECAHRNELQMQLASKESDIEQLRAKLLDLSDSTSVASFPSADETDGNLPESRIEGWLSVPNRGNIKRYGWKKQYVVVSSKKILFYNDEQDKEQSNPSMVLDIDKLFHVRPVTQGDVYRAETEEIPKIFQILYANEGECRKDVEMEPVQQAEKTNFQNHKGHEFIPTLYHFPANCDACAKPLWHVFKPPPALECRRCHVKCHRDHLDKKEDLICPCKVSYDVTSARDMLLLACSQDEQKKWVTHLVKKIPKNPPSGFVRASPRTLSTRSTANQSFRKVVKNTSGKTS
The next test addresses T2, NEK2 (Homo sapiens, UniProt P51955).
T2 sequence (P51955 1-445): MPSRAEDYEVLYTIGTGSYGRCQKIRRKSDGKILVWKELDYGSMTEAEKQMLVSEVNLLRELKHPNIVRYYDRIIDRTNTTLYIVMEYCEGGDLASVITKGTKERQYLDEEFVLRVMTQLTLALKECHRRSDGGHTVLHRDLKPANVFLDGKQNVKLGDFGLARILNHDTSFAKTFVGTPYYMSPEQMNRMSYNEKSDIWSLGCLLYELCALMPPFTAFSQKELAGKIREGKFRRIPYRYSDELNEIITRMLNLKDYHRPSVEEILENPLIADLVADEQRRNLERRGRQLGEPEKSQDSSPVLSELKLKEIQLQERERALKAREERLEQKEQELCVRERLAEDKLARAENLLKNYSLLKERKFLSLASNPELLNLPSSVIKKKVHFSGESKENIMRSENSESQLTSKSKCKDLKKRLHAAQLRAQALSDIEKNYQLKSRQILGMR

Another test has as its target T3, PLK4 (Homo sapiens, UniProt O00444).
T3 sequence (O00444 1-970): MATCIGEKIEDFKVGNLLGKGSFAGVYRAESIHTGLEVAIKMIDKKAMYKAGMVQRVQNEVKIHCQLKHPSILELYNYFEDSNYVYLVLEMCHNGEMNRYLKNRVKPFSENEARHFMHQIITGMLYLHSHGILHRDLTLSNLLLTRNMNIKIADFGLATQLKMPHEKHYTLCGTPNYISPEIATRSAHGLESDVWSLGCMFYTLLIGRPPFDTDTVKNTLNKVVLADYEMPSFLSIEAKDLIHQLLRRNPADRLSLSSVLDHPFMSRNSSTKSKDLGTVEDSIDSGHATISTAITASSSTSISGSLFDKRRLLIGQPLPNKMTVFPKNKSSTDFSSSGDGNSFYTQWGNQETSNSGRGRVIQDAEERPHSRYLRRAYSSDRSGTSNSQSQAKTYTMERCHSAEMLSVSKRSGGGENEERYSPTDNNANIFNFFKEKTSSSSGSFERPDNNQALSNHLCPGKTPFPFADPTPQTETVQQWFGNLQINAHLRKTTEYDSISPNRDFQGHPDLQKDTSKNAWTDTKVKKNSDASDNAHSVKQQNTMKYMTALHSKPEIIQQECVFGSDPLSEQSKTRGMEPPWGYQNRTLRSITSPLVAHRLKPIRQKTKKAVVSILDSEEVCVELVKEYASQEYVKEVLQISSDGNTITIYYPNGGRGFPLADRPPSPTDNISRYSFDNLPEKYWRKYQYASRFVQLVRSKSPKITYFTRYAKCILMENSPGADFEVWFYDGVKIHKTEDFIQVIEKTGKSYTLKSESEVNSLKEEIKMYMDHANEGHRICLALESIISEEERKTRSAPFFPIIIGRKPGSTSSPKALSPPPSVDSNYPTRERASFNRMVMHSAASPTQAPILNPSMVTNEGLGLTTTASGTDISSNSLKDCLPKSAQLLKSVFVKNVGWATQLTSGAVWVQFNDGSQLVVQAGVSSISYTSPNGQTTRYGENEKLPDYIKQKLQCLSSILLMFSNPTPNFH

The next test concerns the target T4, PHKG2 (Homo sapiens, UniProt P15735).
T4 sequence (P15735 1-406): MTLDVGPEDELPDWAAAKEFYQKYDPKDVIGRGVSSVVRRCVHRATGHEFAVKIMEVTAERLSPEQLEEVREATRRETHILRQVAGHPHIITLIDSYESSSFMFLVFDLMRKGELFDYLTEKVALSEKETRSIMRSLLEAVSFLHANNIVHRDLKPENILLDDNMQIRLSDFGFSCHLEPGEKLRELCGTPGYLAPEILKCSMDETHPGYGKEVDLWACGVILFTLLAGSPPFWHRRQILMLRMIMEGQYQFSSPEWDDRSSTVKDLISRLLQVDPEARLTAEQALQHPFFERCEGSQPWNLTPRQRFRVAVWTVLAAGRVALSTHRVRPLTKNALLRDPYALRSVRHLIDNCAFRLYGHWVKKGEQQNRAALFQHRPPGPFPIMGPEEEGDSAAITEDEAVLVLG

Test [1] concerns the target T5, JAK2(JH1domain-catalytic) (Homo sapiens, UniProt O60674).
T5 construct: JH1domain-catalytic

The next test concerns the target T6, CAMK1B (Homo sapiens, UniProt Q6P2M8).
T6 construct: gene PNCK

Where [2] appears, read: read-out: Niraparib (MK-4827) / %Ctrl @ 10000nM.
Setting [3] is: read-out: Olaparib / %Ctrl @ 10000nM.
Where [4] appears, read: read-out: Rucaparib / %Ctrl @ 10000nM, binding competition, % of control.
Setting [5] is: read-out: Talazoparib (BMN 673) / %Ctrl @ 10000nM.

Read-outs that look alike come from different tables or passages of the source.

T5 sequence (O60674 whole entry): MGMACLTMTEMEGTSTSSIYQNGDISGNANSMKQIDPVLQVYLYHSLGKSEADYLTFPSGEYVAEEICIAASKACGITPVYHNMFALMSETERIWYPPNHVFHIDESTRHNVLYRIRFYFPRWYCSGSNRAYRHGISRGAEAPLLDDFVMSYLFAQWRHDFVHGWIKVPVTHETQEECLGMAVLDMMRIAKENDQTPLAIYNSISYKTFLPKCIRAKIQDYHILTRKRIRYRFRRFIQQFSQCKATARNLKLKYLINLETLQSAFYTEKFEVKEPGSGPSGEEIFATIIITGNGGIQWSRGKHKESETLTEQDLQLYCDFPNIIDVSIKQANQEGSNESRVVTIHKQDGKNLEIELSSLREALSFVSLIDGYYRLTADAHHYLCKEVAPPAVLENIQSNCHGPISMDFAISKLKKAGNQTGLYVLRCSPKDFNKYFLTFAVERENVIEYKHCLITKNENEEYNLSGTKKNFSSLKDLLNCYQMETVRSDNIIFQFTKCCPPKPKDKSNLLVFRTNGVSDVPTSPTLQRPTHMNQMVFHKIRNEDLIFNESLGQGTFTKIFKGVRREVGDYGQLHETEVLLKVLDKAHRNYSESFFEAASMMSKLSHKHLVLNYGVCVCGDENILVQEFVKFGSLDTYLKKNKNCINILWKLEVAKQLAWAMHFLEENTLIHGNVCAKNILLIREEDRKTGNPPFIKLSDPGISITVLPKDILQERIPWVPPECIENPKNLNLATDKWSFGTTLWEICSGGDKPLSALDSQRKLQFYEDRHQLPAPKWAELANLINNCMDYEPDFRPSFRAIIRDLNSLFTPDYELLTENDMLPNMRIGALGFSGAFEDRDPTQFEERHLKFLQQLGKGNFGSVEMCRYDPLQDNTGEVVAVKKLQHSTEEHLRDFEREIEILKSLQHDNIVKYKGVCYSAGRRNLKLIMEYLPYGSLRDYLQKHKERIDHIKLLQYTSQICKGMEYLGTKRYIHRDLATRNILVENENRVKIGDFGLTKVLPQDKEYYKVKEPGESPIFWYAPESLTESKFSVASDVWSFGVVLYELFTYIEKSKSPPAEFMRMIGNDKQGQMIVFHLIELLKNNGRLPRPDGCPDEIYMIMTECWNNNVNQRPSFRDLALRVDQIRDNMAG
T6 sequence (Q6P2M8 whole entry): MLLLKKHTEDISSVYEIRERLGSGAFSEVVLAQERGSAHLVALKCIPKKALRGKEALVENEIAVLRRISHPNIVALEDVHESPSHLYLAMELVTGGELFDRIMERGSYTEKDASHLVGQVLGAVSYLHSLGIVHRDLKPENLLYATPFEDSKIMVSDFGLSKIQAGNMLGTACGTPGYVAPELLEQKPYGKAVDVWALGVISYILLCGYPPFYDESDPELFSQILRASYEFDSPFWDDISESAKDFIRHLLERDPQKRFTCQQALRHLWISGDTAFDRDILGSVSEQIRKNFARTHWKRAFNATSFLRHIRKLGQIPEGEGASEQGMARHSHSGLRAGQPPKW

`NC(=O)c1cccc2cn(-c3ccc([C@@H]4CCCNC4)cc3)nc12` [Niraparib]: the percent of control binding at 10 µM came to 98% at SGK3 (setting [2]); 61% on ROCK1 (setting [2]); 98% at NEK2 (setting [2]); 56% on PLK4 (setting [2]); 87% on PHKG2 (setting [2]); 82% in test [1] (setting [2]). Moreover, the percent of control binding at 10 µM on CAMK1B (setting [2]) was found to be 94%.
For the compound `O=C(c1cc(Cc2n[nH]c(=O)c3ccccc23)ccc1F)N1CCN(C(=O)C2CC2)CC1` [Olaparib], the percent of control binding at 10 µM on SGK3 (setting [3]) is 79%; on ROCK1 (setting [3]) it was 97%; at NEK2 (setting [3]), 100%; on PLK4 (setting [3]), 91%; at PHKG2 (setting [3]), 100%; in test [1] (setting [3]), 78%. For the same compound, the percent of control binding at 10 µM on CAMK1B (setting [3]) is 97%.
On to `CNCc1ccc(-c2[nH]c3cc(F)cc4c3c2CCNC4=O)cc1` [Rucaparib], for which the percent of control binding at 10 µM was determined as 38% at SGK3 (setting [4]); 85% on ROCK1 (setting [4]); 87% at NEK2 (setting [4]); 99% at PLK4 (setting [4]); 70% at PHKG2 (setting [4]); 70% in test [1] (setting [4]). For the same compound, at CAMK1B (setting [4]), the percent of control binding at 10 µM came to 100%.
With `Cn1ncnc1[C@H]1c2n[nH]c(=O)c3cc(F)cc(c23)N[C@@H]1c1ccc(F)cc1` [Talazoparib], the percent of control binding at 10 µM at SGK3 (setting [5]) is 100%; on ROCK1 (setting [5]) it was 100%; on NEK2 (setting [5]), 100%; at PLK4 (setting [5]), 72%; at PHKG2 (setting [5]), 97%; in test [1] (setting [5]), 93%. The percent of control binding at 10 µM at CAMK1B (setting [5]) was 100%.
